In EP0325048A1, “Imidazo- and pyrimido-quinoline, naphthyridine and pyridopyrazine compounds” (SCHERING CORPORATION, priority 1987, dated 1989):
Where two headings read alike, the source gives them in different places.

Assays:
[1] = tested on: reverse passive Arthus reaction in the pleural cavity of rats; test: reverse passive Arthus reaction in the pleural cavity of rats (pleurisy); type: in vivo, Male Lewis rats; settings: Rattus norvegicus, po; for inhibition in vivo at 3.125 mg/kg: 3.125 mg/kg p.o. (Table 4); for inhibition in vivo at 6.25 mg/kg: 6.25 mg/kg p.o. (Table 4); for inhibition in vivo at 12.5 mg/kg: 12.5 mg/kg p.o. (Table 4); for inhibition in vivo at 50 mg/kg: 50 mg/kg p.o. (Table 4); for inhibition in vivo at 1 mg/kg: 1 mg/kg p.o.; for inhibition in vivo at 3 mg/kg: 3 mg/kg p.o.; for inhibition in vivo at 9 mg/kg: 9 mg/kg p.o.
Description: Another procedure for testing for acute antiinflammatory activity measures the reverse passive Arthus reaction in the pleural cavity of rats.
Male Lewis rats weighing 180-220 grams were obtained from Charles River Breeding Laboratories, Wilmington, MA and permitted food and water ad libitum. Rooms housing the animals were temperature controlled with a 12 hour light and dark cycle.
Groups of five rats were dosed with drug 30 minutes prior to sensitization with BSA (1 mg/0.2 ml saline). Thirty minutes later the animals were challenged with the IgG fraction of a rabbit anti-bovine serum albumi antibodies (0.1 mg antibody protein per 0.2 ml saline Cooper Biomedical, Malvern, PA) in the pleural cavity. Four hours after challenge, the rats were sacrificed and the exudate harvested from the pleural cavity. The volume of the exudate was measured and the total number of cells determined with a Coulter Counter. [formula]
The results measured as percent inhibition of the infiltration of polymorphonuclear leucocytes (PMNs) and of edena are set forth below in Table 3.

[2] = tested on: anaphylactic bronchospasm in sensitized guinea pigs; test: anaphylactic bronchospasm in sensitized guinea pigs (modified Konzett-Rossler), antigen-induced SRS-A mediated bronchoconstriction; type: in vivo; settings: for % Inhibition of Broncho-constriction: 2 hours before antigen challenge, inhibition of increase in intratracheal pressure; for % Inhibition of Bronchoconstriction: comparison compound (Table 2)
Description: The anti-allergy method of this invention is identified by tests which measure a compound's inhibition of anaphylactic bronchospasm in sensitized guinea pigs having antigen-induced SRS-A mediated bronchoconstriction. Allergic bronchospasm was measured in actively sensitized guinea pigs by a modification of the procedure of Konzett and Rossler, Arch. Exptl. Pathol. […] Male Hartley guinea pigs were sensitized with 5 mg ovalbumin injected ip and 5 mg injected sc in 1 ml saline on day 1 and 5mg ovalbumin injected ip on day 4. The sensitized animals were used 3-4 weeks later. To measure anaphylactic bronchospasm, sensitized guinea pigs were fasted overnight and the following morning were anesthetized with 0.9 ml/kg ip of dialurethane. The trachea and jugular vein were cannulated and the animals were ventilated by a Harvard rodent respirator. A side arm to the tracheal cannula was connected to a Harvard pressure transducer to obtain a continuous measure of intratracheal pressure. An increase in intratracheal pressure was taken as a measure of bronchoconstriction. Each guinea pig was injected iv with 1mg/kg propranolol, 5 mg/kg indomethacin and 2 mg/kg mepyramine given together in a volume of 1 ml/kg. Fifteen minutes later, the animals were challenged with antigen (0.5 per cent ovalbumin) delivered as an aerosol generated from a DeVilbiss Model 65 ultrasonic nebulizer and delivered through the tracheal cannula for 30 seconds. Bronchoconstriction was measured as the peak increase in intratracheal pressure occurring within 15 minutes after antigen challenge.

[3] = tested on: Reversed Passive Arthus Reaction (RPAR)-PAW; test: Reversed Passive Arthus Reaction (RPAR)-PAW technique; type: in vivo, male Lewis rats; settings: 25 mg/kg (p.o.); paw volume at 2 hours post-challenge
Description: The compounds of this invention are also useful for the treatment of inflammation; thus, they are useful for the treatment of: arthritis, bursitis, tendonitis, gout and other inflammatory conditions. […] The potency of the compounds is determined using indomethacin as the standard. On the basis of the test results, an oral dosage range of about 5 milligrams per kilogram of body weight per day to about 50 milligrams per kilogram of body weight per day in divided doses taken at about 4 hour intervals is recommended, again with any of the conventional modes of administration for treatment of inflammation being suitable.
Male Lewis inbred albino rats weighing 180-220 grams obtained from Charles River Breeding Laboratories are used in these experiments. The rats are housed 3 animals/cage and food and water are allowed ad libitum. The animals are numbered 1-3 in each cage and color marked for identification purposes.
All reagents and drugs are prepared just prior to the study. […]
Groups of animals (6/group) are dosed with drug in MC by gavage one hour prior to sensitization with BSA. […] The volume of mercury displaced is converted to weight and recorded. […] Paw volumes are also recorded with a plethysmograph during the development of the inflammation at 2 hours post-challenge.

[4] = 4 h, read-out: Pleurisy (% Inhibition) Edema
[5] = 4 h, read-out: Pleurisy (% Inhibition) PMNs
[6] = 25 mg/kg p.o., exudate 4 hours after challenge, read-out: Pleurisy (% Inhibition) Edema
[7] = 25 mg/kg p.o., exudate 4 hours after challenge, read-out: Pleurisy (% Inhibition) PMNs

## C[C@]12C=CC(=O)C=C1CC[C@@H]1[C@@H]2C(=O)C[C@@]2(C)[C@H]1CC[C@]2(O)C(=O)CO [Prednisone, prednisone, reference compound]
[1]; [4]
  inhibition in vivo at 3.125 mg/kg: 2%
  inhibition in vivo at 6.25 mg/kg: 17%
  inhibition in vivo at 12.5 mg/kg: 27%
  inhibition in vivo at 50 mg/kg: 58%
[1]; [5]
  inhibition in vivo at 3.125 mg/kg: 7%
  inhibition in vivo at 6.25 mg/kg: 16%
  inhibition in vivo at 12.5 mg/kg: 20%
  inhibition in vivo at 50 mg/kg: 42%
[1]; 4 h, 25 mg/kg p.o. (Table 4), read-out: Pleurisy (% Inhibition) Edema
  inhibition in vivo at 25 mg/kg: 44%
[1]; 4 h, 25 mg/kg p.o. (Table 4), read-out: Pleurisy (% Inhibition) PMNs
  inhibition in vivo at 25 mg/kg: 25%

## CN1CCn2c1c(-c1ccccc1)c1ncccc1c2=O [R^3=CH3, R^4=phenyl, n=2, 2,3-dihydro-1-methyl-10-phenylimidazo[1,2-g][1,6]naphthyridin-5(1H)-one]
[1]; [6]
  inhibition in vivo at 25 mg/kg: 56%
[1]; [7]
  inhibition in vivo at 25 mg/kg: 69%

## O=c1c2cccnc2c(-c2cccc(Cl)c2)c2n1CCCN2 [R^3=H, R^4=3-chloro phenyl, n=3, 11-(3-chlorophenyl)-1,2,3,4-tetrahydro-6H-pyrimido[1,2-g][1,6]naphthyridin-6-one]
[2]; 5 mg/kg p.o.
  % Inhibition of Broncho-constriction: 54%
[1]; [6]
  inhibition in vivo at 25 mg/kg: 76%
[1]; [7]
  inhibition in vivo at 25 mg/kg: 82%

## O=c1c2cccnc2c(-c2cccc(Cl)c2)c2n1CCN2 [R^3=H, R^4=3-chloro-phenyl, n=2, 10-(3-chlorophenyl)-2,3-dihydroimidazo[1,2-g][1,6]naphthyridin-5(1H)-one]
[2]; 5 mg/kg p.o.
  % Inhibition of Broncho-constriction: 43%

## COc1cccc(-c2c3n(c(=O)c4cccnc24)CCN3)c1 [R^3=H, R^4=3-methoxy-phenyl, n=2, 2,3-dihydro-10-(3-methoxyphenyl)imidazo-[1,2-g][1,6]naphthyridin-5(1H)-one]
[2]; 5 mg/kg p.o.
  % Inhibition of Broncho-constriction: 61%
[1]; [6]
  inhibition in vivo at 25 mg/kg: 69%
[1]; [7]
  inhibition in vivo at 25 mg/kg: 79%

## O=c1c2cccnc2c(-c2ccc(Cl)cc2)c2n1CCN2 [R^3=H, R^4=4-chloro-phenyl, n=2, 10-(4-chlorophenyl)-2,3-dihydro-imidazo[1,2-g][1,6]naphthyridin-5(1H)-one]
[2]; 5 mg/kg p.o.
  % Inhibition of Broncho-constriction: 11%
[1]; [6]
  inhibition in vivo at 25 mg/kg: 92%
[1]; [7]
  inhibition in vivo at 25 mg/kg: 95%

## COc1ccc(-c2c3n(c(=O)c4cccnc24)CCN3)cc1 [R^3=H, R^4=4-methoxy-phenyl, n=2, 2,3-dihydro-10-(4-methoxyphenyl)imidazo-[1,2-g][1,6]naphthyridin-5(1H)-one]
[2]; 10 mg/kg p.o.
  % Inhibition of Broncho-constriction: 8%
[1]; [6]
  inhibition in vivo at 25 mg/kg: 42%
[1]; [7]
  inhibition in vivo at 25 mg/kg: 49%

## Cc1ccc(-c2c3n(c(=O)c4cccnc24)CCN3)cc1 [R^3=H, R^4=4-methyl phenyl, n=2, 2,3-dihydro-10(4-methylphenyl)imidazo-[1,2-g][1,6]naphthyridin-5(1H)-one]
[3]
  inhibition: 42%
[2]; 5 mg/kg p.o.
  % Inhibition of Broncho-constriction: 1%
[1]; [6]
  inhibition in vivo at 25 mg/kg: 42%
[1]; [7]
  inhibition in vivo at 25 mg/kg: 53%

## O=c1c2cccnc2c(-c2cccc3ccccc23)c2n1CCN2 [R^3=H, R^4=naphthyl, n=2, 2,3-dihydro-10-(1-naphthalenyl)imidazo-[1,2-g][1,6]naphthyridin-5(1H)-one]
[1]; [6]
  inhibition in vivo at 25 mg/kg: 28%
[1]; [7]
  inhibition in vivo at 25 mg/kg: 50%

## O=c1c2cccnc2c(-c2ccccc2)c2n1CCN2 [R^3=H, R^4=phenyl, n=2, 2,3-dihydro-10-phenylimidazo[1,2-g][1,6]-naphthyridin-5(1H)-one]
[3]
  inhibition: 92%
[2]; 10 mg/kg p.o.
  % Inhibition of Broncho-constriction: 16%
[1]; [4]
  inhibition in vivo at 1 mg/kg: 9%
  inhibition in vivo at 3 mg/kg: 25%
  inhibition in vivo at 9 mg/kg: 34%
[1]; [5]
  inhibition in vivo at 1 mg/kg: 3%
  inhibition in vivo at 3 mg/kg: 28%
  inhibition in vivo at 9 mg/kg: 54%
[1]; [6]
  inhibition in vivo at 25 mg/kg: 55%
[1]; [7]
  inhibition in vivo at 25 mg/kg: 90%

## Cn1c(=O)c2[nH]cnc2n(C)c1=O [aminophylline, reference compound]
[2]; 18 mg/kg p.o.
  % Inhibition of Bronchoconstriction: 21%
[2]; 53 mg/kg p.o.
  % Inhibition of Bronchoconstriction: 58%

## C[C@@H]1C[C@H]2[C@@H]3CCC4=CC(=O)C=C[C@]4(C)[C@@]3(F)[C@@H](O)C[C@]2(C)[C@@]1(O)C(=O)CO [dexamethasone, reference compound]
[2]; 3 mg/kg p.o.
  % Inhibition of Bronchoconstriction: 38%
[2]; 10 mg/kg p.o.
  % Inhibition of Bronchoconstriction: 46%

## CC(C)(C)c1ccc(C(O)CCCN2CCC(C(O)(c3ccccc3)c3ccccc3)CC2)cc1 (stereo not shown) [terfenadine, reference compound]
[2]; 30 mg/kg p.o.
  % Inhibition of Bronchoconstriction: 5%
